The target in the assay is T1, MMP-13 (Homo sapiens, UniProt P45452).
T1 construct: purchased Calbiochem (EMD/MERCK Biosciences)
As to the kind of experiment: Enzyme inhibiting activity of MMPs, fluorogenic peptide substrate. It counts as biochemical. The following applies: compounds not described in the Tables; read-out: inhibiting activity for MMP-13. The method, then: Various human MMPs (MMP-2, MMP-9 and MMP-13) were purchased from Calbiochem (EMD/MERCK Biosciences).
Since the purchased MMP-13 was Proenzyme, the activated one was used, which was incubated at 37° C. for 2 hours after the successive addition of an assay buffer (containing 50 mM Tris-HCl (pH7.6), 0.3 M NaCl, 10 mM CaCl2, 0.005% Brij35) and APMA (final concentration 1 mM) to the enzyme solution.
The enzyme activity of MMPs was measured according to the method described in C. Graham Knight, Frances Willenbrock and Gillian Murphy: A novel coumarin-labelled peptide for sensitive continuous assays of the matrix metalloproteinases: FEBS LETT., 296, (1992), 263-266. As a substrate, MOCAc-Pro-Leu-Gly-Leu-A2Pr(DNP)- Ala-Arg-NH2 (Peptide Institute, Inc. Osaka, Japan) was used, and the following four assays are performed per compound (inhibitor) for measuring the inhibiting activity.
(A) Substrate (synthetic substrate), enzyme (MMPs), inhibitor
(B) Substrate (synthetic substrate), inhibitor
(C) Substrate (synthetic substrate), enzyme (MMPs)
(D) Substrate (synthetic substrate)
In each assay, the fluorescent intensity was measured, and inhibition (%) was calculated by the following equation.
Inhibition (%)=[I−(A−B)/(C−D)]×100
IC50 indicates a concentration at which inhibition (%) is 50%.
Consider `CCC[C@H](NS(=O)(=O)N1CCN(c2ccc(C#Cc3ccc4cccc(C(N)=O)c4c3)cc2)CC1)C(=O)O` [Compound I-92, (S)-2-{4-[4-(8-carbamoylnaphthalen-2-ylethynyl)-phenyl]-piperazine-1-sulfonylamino}-pentanoic acid], for which the IC50 lay in the range of 10 to 100 nM.
The result for `Cc1cc(CNC(=O)c2cccc(/C=C/c3ccc(N4CCN(S(=O)(=O)N[C@H](C)C(=O)O)CC4)cc3)c2)ccc1F` [Compound I-29, (R)-2-[4-(4-{(E)-2-[3-(4-fluoro3-methylbenzylcarbamoyl)-phenyl]-vinyl}-phenyl)-piperazine-1-sulfonylamino]-proponic acid] reads 10 to 100 nM; that for `Cc1cc(CNC(=O)c2cccc(C#Cc3ccc(N4CCN(S(=O)(=O)N[C@H](C)C(=O)O)CC4)cc3)c2)ccc1F` [Compound I-28, (R)-2-(4-{4-[3-(4-fluoro3-methylbenzylcarbamoyl)-phenylethynyl]-phenyl}-piperazine-1-sulfonylamino)-proponic acid], less than 10 nM; that for `CC(=O)c1cccc2ccc(C#Cc3ccc(N4CCN(S(=O)(=O)N[C@@H](C(=O)O)C(C)C)CC4)cc3)cc12` [Compound I-101, (R)-2-{4-[4-(8-acetylnaphthalen-2-ylethynyl)-phenyl]-piperazine-1-sulfonylamino}-3-methylbutanoic acid], 10 to 100 nM.
The result for `CCC[C@H](NS(=O)(=O)N1CCN(c2ccc(/C=C/c3ccc4cccc(C(N)=O)c4c3)cc2)CC1)C(=O)O` [Compound I-59, (S)-2-(4-{4-[(E)-2-(8-carbamoylnaphthalen-2-yl)-vinyl]-phenyl}-piperazine-1-sulfonylamino)-pentanoic acid] reads 10 to 100 nM; that for `CCC[C@H](NS(=O)(=O)N1CCN(c2ccc(C#Cc3cccc(-c4ncc(C)o4)c3)cc2)CC1)C(=O)O` [Compound I-26, (S)-2-(4-{4-[3-(5-methyloxazol-2-yl)-phenylethynyl]-phenyl}-piperazine-1-sulfonylamino)-pentanoic acid], 10 to 100 nM; that for `C[C@@H](NS(=O)(=O)N1CCN(c2ccc(C#Cc3ccc4cccc(S(C)(=O)=O)c4c3)cc2)CC1)C(=O)O` [Compound I-83, (R)-2-{4-[4-(8-methanesulfonylnaphthalen-2-ylethynyl)-phenyl]-piperazine-1-sulfonylamino}-proponic acid], 10 to 100 nM.
Take `Cc1cnc(-c2cccc(C#Cc3ccc(N4CCN(S(=O)(=O)N[C@@H](C(=O)O)C(C)C)CC4)cc3)c2)o1` [Compound I-27, (R)-3-methyl-2-(4-{4-[3-(5-methyloxazol-2-yl)-phenylethynyl]-phenyl}-piperazine-1-sulfonylamino)-butanoic acid]: the IC50 lay within 10 to 100 nM.
Under `C[C@@H](NS(=O)(=O)N1CCN(c2ccc(C#Cc3ccc4cccc(-c5ccc[nH]5)c4c3)cc2)CC1)C(=O)O` [Compound I-111, (R)-2-(4-{4-[8-(1H-pyrrol-2-yl)-naphthalen-2-ylethynyl]-phenyl}-piperazine-1-sulfonylamino)-proponic acid] stands 10 to 100 nM; under `CO/N=C(/C)c1cccc2ccc(C#Cc3ccc(N4CCN(S(=O)(=O)N[C@H](C)C(=O)O)CC4)cc3)cc12` [Compound I-96, (R)-2-{4-[4-(8-{1-[(Z)-methoxyimino]-ethyl}-naphthalen-2-ylethynyl)-phenyl]-piperazine-1-sulfonylamino}-proponic acid], 10 to 100 nM.
Under `C[C@H](NS(=O)(=O)N1CCN(c2ccc(C#Cc3ccc4cccc(C(N)=O)c4c3)cc2)CC1)C(=O)O` [Compound I-105, (S)-2-{4-[4-(8-carbamoylnaphthalen-2-ylethynyl)-phenyl]-piperazine-1-sulfonylamino}-proponic acid] stands 10 to 100 nM.
On to `C[C@@H](NS(=O)(=O)N1CCN(c2ccc(C#Cc3ccc4cccc(/C=C/c5nnn[nH]5)c4c3)cc2)CC1)C(=O)O` [Compound I-71], for which the IC50 is less than 10 nM.
The result for `C[C@@H](NS(=O)(=O)N1CCN(c2ccc(C#Cc3ccnc(C(=O)NCc4ccccc4)c3)cc2)CC1)C(=O)O` [Compound I-19, (R)-2-{4-[4-(2-benzylcarbamoylpyridin-4-ylethynyl)-phenyl]-piperazine-1-sulfonylamino}-proponic acid] reads less than 10 nM; that for `CC(C)C[C@H](NS(=O)(=O)N1CCN(c2ccc(C#Cc3ccc4cccc(C(N)=O)c4c3)cc2)CC1)C(=O)O` [Compound I-55, (S)-2-{4-[4-(8-carbamoylnaphthalen-2-ylethynyl)-phenyl]-piperazine-1-sulfonylamino}-4-methylpentanoic acid], 10 to 100 nM.
Under `C[C@@H](NS(=O)(=O)N1CCN(c2ccc(C#Cc3ccc4cccc(-c5ncco5)c4c3)cc2)CC1)C(=O)O` [Compound I-109, (R)-2-{4-[4-(8-oxazol-2-ylnaphthalen-2-ylethynyl)-phenyl]-piperazine-1-sulfonylamino}-proponic acid] stands 10 to 100 nM.
Under `C[C@@H](NS(=O)(=O)N1CCN(c2ccc(C#Cc3ccc4cccc(/C=C/C#N)c4c3)cc2)CC1)C(=O)O` [Compound I-67, (R)-2-(4-{4-[8-((E)-2-cyanovinyl)-naphthalen-2-ylethynyl]-phenyl}-piperazine-1-sulfonylamino)-proponic acid] stands less than 10 nM.
`C[C@@H](NS(=O)(=O)N1CCN(c2ccc(C#Cc3ccc4cccc(/C=C/C(N)=O)c4c3)cc2)CC1)C(=O)O` [Compound I-68, (R)-2-(4-{4-[8-((E)-2-carbamoylvinyl)-naphthalen-2-ylethynyl]-phenyl}-piperazine-1-sulfonylamino)-proponic acid]: the IC50 was less than 10 nM.
Under `CCC[C@H](NS(=O)(=O)N1CCN(c2ccc(C#Cc3ccc4cccc(C(C)=O)c4c3)cc2)CC1)C(=O)O` [Compound I-110, (S)-2-{4-[4-(8-acetylnaphthalen-2-ylethynyl)-phenyl]-piperazine-1-sulfonylamino}-pentanoic acid] stands 10 to 100 nM.
Under `C[C@@H](NS(=O)(=O)N1CCN(c2ccc(C#Cc3ccc4cccc(C(=O)NCCNC(=O)OC(C)(C)C)c4c3)cc2)CC1)C(=O)O` [Compound I-62, (R)-2-(4-{4-[8-(2-tert-butoxycarbonylaminoethylcarbamoyl)-naphthalen-2-ylethynyl]-phenyl}-piperazine-1-sulfonylamino)-proponic acid] stands 10 to 100 nM; under `CCNC(=O)c1cccc2ccc(C#Cc3ccc(N4CCN(S(=O)(=O)N[C@H](C)C(=O)O)CC4)cc3)cc12` [Compound I-104, (R)-2-{4-[4-(8-ethylcarbamoylnaphthalen-2-ylethynyl)-phenyl]-piperazine-1-sulfonylamino}-proponic acid], less than 10 nM.
The result for `CC(C)CO/N=C1\CCc2ccc(C#Cc3ccc(N4CCN(S(=O)(=O)N[C@H](C)C(=O)O)CC4)cc3)cc21` [Compound I-161, (R)-2-[4-(4-{3-[(E)-isobutoxyimino]indan-5-ylethynyl}-phenyl)-piperazine-1-sulfonylamino]-proponic acid] reads 10 to 100 nM; that for `C[C@@H](NS(=O)(=O)N1CCN(c2ccc(C#Cc3ccc4cccc(S(N)(=O)=O)c4c3)cc2)CC1)C(=O)O` [Compound I-81, (R)-2-{4-[4-(8-sulfamoylnaphthalen-2-ylethynyl)-phenyl]-piperazine-1-sulfonylamino}-proponic acid], 10 to 100 nM.
With `C[C@@H](NS(=O)(=O)N1CCN(c2ccc(C#Cc3ccc4cccc(/C=C/Cl)c4c3)cc2)CC1)C(=O)O` [Compound I-72, (R)-2-(4-{4-[8-((E)-2-chlorovinyl)-naphthalen-2-ylethynyl]-phenyl}-piperazine-1-sulfonylamino)-proponic acid], the IC50 was in the range of 10 to 100 nM.
The result for `CC(C)[C@@H](NS(=O)(=O)N1CCN(c2ccc(C#Cc3ccc4cccc(C(N)=O)c4c3)cc2)CC1)C(=O)O` [Compound I-93, (R)-2-{4-[4-(8-carbamoylnaphthalen-2-ylethynyl)-phenyl]-piperazine-1-sulfonylamino}-3-methylbutanoic acid] reads 10 to 100 nM; that for `C[C@@H](NS(=O)(=O)N1CCN(c2ccc(C#Cc3cccc(C(=O)NCc4ccc(Cl)cc4)c3)cc2)CC1)C(=O)O` [Compound I-32, (R)-2-(4-{4-[3-(4-chlorobenzylcarbamoyl)-phenylethynyl]-phenyl}-piperazine-1-sulfonylamino)-proponic acid], less than 10 nM.
Consider `COc1cccc2ccc(C#Cc3ccc(N4CCN(S(=O)(=O)N[C@H](C)C(=O)O)CC4)cc3)cc12` [Compound I-99, (R)-2-{4-[4-(8-methoxynaphthalen-2-ylethynyl)-phenyl]-piperazine-1-sulfonylamino}-proponic acid], for which the IC50 was 10 to 100 nM.
Under `CSc1cccc2ccc(C#Cc3ccc(N4CCN(S(=O)(=O)N[C@H](C)C(=O)O)CC4)cc3)cc12` [Compound I-82, (R)-2-{4-[4-(8-methylsulfanylnaphthalen-2-ylethynyl)-phenyl]-piperazine-1-sulfonylamino}-proponic acid] stands 10 to 100 nM; under `CC(C)NS(=O)(=O)c1cccc2ccc(C#Cc3ccc(N4CCN(S(=O)(=O)N[C@H](C)C(=O)O)CC4)cc3)cc12` [Compound I-80, (R)-2-{4-[4-(8-isopropylsulfamoylnaphthalen-2-ylethynyl)-phenyl]-piperazine-1-sulfonylamino}-proponic acid], 10 to 100 nM.
